We go through 21 compounds from patent US10004732B2 (Novartis AG, priority 2014, dated 2018).

One assay has as its target Vps34 (Homo sapiens, UniProt Q8NEB9). Put plainly: Kinase Glo Luminescent Kinase Assay (Kglo), assay C. To be noted: read-out: Assay C VPS34 IC50. Type of assay: biochemical. On the technique in general: Kinase-Glo reads ATP consumption through a luciferase reaction.
The next assay deals with PI 3-kinase delta (Homo sapiens, UniProt O00329). The experiment in a line: TR-FRET Adapta assay, assay F. On the technique in general: Time-resolved FRET reads energy transfer from a long-lived donor to a nearby acceptor.
A further assay concerns the target mTOR (Homo sapiens, UniProt P42345). Put plainly: Lanthascreen kinase binding assay, assay G. To be noted: read-out: Assay G mTOR IC50.
A further assay concerns the target PI 3-kinase alpha (Homo sapiens, UniProt P42336). The experiment in a line: Kinase Glo Luminescent Kinase Assay (Kglo), assay A. It is filed as biochemical. To be noted: read-out: Assay A PI3Kα IC50.
A further assay deals with PI 4-kinase beta (Homo sapiens, UniProt Q9UBF8). Put plainly: Kinase Glo Luminescent Kinase Assay (Kglo), assay D. To be noted: read-out: Assay D PI4Kβ IC50. It is filed as biochemical.
A further assay addresses PI 3-kinase gamma (Homo sapiens, UniProt P48736). Put plainly: TR-FRET Adapta assay, assay E. To be noted: read-out: Assay E PI3Kγ IC50. Type of assay: biochemical.
The target of a further assay is PI 3-kinase beta (Homo sapiens, UniProt P42338). The experiment in a line: Kinase Glo Luminescent Kinase Assay (Kglo), assay B. It is filed as biochemical. To be noted: read-out: Assay B PI3Kβ IC50.

pIC50: −log10 of the molar value. Like-named read-outs stand apart in the source and are kept apart here.

Chain of PI 3-kinase delta (O00329 whole entry): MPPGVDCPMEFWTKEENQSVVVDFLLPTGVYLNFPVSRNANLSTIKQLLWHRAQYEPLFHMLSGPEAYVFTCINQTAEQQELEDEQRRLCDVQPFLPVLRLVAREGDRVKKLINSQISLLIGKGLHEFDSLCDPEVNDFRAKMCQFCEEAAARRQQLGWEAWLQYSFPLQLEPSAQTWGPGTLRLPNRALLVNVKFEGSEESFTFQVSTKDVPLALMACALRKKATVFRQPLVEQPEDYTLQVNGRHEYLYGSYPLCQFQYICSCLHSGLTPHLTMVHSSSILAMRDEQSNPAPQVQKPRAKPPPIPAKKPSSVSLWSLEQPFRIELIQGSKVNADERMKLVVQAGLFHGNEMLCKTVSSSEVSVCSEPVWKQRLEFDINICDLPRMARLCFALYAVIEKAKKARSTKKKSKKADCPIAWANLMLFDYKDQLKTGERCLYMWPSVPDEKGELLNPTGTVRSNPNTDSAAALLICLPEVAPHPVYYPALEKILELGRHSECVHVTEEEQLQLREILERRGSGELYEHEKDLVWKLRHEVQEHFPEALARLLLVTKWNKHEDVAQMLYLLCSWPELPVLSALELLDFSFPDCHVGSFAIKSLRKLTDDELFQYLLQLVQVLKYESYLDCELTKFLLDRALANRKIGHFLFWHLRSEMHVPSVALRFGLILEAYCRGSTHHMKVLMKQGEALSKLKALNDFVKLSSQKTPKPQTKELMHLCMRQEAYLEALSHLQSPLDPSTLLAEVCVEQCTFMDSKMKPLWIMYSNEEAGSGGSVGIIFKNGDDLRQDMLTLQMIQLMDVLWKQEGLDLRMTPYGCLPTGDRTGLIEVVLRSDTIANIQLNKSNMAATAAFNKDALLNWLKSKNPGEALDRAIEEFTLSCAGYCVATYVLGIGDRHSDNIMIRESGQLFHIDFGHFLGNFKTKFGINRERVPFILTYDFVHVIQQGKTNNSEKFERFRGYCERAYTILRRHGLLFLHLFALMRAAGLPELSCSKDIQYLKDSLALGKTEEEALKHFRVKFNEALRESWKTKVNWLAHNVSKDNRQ
Chain of PI 3-kinase delta (P27986 461-568 partner): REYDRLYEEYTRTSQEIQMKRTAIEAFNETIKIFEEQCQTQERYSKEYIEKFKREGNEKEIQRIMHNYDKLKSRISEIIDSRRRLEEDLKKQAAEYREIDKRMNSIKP
Chain of PI 3-kinase alpha (P42336 whole entry): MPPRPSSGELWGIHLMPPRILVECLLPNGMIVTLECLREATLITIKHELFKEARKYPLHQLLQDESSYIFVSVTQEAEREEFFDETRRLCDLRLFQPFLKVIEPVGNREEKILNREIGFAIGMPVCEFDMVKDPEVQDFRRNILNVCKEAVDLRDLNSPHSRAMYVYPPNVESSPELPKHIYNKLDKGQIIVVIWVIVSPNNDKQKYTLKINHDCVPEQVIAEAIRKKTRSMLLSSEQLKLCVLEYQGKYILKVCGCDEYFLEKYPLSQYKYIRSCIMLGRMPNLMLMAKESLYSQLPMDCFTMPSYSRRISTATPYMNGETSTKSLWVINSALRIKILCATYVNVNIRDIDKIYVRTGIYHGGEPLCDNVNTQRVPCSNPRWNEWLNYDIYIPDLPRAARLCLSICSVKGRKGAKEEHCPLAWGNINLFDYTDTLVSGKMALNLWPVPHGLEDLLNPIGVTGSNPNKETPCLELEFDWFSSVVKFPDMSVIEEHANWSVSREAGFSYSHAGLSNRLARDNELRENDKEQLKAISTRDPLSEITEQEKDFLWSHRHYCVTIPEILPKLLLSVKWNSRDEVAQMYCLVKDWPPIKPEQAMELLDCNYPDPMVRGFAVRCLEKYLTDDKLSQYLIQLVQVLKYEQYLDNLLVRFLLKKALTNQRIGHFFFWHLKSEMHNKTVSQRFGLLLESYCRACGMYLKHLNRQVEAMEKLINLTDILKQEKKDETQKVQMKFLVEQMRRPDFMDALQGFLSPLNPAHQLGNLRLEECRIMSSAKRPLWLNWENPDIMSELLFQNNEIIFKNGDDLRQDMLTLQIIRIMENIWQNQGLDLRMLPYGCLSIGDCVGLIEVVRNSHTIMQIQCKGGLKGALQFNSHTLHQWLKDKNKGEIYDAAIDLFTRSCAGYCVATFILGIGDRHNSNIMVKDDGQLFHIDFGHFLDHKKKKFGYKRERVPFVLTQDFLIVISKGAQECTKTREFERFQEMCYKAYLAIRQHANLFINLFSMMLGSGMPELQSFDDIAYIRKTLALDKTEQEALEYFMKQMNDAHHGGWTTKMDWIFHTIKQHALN
Chain of Vps34 (Q8NEB9 whole entry, species assumed): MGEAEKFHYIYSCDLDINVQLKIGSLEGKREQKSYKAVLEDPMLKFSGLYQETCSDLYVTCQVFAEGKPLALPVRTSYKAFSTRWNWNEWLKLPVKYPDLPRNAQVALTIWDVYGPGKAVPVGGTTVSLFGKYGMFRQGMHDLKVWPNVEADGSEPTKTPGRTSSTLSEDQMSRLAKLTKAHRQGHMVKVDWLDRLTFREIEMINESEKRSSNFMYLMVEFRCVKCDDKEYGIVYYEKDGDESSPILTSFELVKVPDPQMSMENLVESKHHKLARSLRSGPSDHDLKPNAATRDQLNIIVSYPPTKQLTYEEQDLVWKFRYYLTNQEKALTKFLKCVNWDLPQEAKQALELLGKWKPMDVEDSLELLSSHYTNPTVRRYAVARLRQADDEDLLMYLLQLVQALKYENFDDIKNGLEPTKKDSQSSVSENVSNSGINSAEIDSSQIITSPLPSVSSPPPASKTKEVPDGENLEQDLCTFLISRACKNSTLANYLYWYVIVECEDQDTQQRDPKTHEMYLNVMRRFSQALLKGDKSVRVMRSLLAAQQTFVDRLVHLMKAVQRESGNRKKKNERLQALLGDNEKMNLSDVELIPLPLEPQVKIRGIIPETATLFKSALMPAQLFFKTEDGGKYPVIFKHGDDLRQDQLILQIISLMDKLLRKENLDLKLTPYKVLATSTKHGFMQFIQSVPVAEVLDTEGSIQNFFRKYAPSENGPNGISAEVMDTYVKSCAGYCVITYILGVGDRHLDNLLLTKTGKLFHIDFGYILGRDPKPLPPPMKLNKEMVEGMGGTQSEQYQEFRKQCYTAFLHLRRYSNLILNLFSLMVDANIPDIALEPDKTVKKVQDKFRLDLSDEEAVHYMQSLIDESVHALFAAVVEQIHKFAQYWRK
Chain of PI 3-kinase beta (P42338 whole entry): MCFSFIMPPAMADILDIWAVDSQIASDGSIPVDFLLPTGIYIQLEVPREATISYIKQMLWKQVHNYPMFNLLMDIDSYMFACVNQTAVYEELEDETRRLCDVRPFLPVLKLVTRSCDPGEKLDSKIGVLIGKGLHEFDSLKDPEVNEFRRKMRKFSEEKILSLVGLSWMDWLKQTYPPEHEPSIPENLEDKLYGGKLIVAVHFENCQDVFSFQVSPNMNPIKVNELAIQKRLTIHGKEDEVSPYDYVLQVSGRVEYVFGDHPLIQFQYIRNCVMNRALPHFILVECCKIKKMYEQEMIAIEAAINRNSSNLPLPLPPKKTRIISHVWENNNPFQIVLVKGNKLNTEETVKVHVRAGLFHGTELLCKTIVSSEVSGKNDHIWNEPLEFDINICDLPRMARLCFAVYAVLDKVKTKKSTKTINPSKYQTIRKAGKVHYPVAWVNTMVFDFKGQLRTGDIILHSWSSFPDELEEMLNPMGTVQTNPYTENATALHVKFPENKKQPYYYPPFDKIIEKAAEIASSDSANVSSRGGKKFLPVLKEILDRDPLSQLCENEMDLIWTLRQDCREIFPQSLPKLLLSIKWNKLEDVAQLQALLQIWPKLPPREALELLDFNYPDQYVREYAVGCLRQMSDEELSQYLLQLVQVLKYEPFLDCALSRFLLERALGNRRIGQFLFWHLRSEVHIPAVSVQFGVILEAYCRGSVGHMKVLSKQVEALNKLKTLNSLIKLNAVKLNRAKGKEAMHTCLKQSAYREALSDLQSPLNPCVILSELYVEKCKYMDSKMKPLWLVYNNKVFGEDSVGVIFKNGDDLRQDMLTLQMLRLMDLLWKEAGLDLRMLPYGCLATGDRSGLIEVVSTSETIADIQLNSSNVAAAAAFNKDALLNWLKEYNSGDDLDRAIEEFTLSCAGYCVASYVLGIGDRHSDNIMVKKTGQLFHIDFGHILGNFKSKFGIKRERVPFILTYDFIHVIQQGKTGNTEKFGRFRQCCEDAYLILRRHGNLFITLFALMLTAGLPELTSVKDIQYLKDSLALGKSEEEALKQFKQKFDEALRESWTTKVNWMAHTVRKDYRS
Chain of PI 3-kinase beta (P27986 461-568 partner): as the sequence (P27986 461-568 partner) above
Chain of PI 4-kinase beta (Q9UBF8 whole entry): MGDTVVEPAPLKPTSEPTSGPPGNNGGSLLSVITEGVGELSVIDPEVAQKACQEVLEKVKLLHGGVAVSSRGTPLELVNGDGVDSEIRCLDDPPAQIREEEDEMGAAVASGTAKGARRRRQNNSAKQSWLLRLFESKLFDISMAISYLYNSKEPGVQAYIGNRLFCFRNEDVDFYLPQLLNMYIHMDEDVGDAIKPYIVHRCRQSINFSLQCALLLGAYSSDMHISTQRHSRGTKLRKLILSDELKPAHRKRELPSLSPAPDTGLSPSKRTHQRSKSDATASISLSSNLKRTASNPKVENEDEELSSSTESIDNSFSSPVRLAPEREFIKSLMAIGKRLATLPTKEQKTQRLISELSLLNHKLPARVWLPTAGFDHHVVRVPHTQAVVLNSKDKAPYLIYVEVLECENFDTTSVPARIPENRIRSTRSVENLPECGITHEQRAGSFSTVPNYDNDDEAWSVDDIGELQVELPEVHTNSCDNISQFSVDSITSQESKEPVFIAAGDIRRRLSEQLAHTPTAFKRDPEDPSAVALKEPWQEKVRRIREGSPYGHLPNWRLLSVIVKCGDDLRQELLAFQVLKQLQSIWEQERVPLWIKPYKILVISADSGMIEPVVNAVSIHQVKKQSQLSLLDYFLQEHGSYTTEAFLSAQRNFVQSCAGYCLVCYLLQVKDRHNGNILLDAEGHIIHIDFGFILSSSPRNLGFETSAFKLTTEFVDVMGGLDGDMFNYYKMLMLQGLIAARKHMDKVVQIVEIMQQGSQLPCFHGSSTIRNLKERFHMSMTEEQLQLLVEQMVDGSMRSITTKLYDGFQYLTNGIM
Procedure for mTOR: Lanthascreen™ Kinase Binding Assay for mTOR (G)
Binding of an inhibitor to the kinase competes for binding with the tracer, resulting in a loss of FRET.
50 nL of compound dilutions were dispensed onto white 384-well small volume polystyrene plate.

As usually defined, the pIC50 is the IC50 on a negative log10 scale, so that one unit is a factor of ten. Take `Cc1cc(-c2nc(-c3cc(S(=O)(=O)NCC4(C(N)=O)CCOCC4)ccc3C)cnc2N)ccn1` [Example 129.31, 4-((3-(5-amino-6-(2-methylpyridin-4-yl)pyrazin-2-yl)-4-methylphenylsulfonamido)methyl)tetrahydro-2H-pyran-4-carboxamide]: the pIC50 at Vps34 is below 5.04; at PI 3-kinase delta (read-out: Assay F PI3Kδ IC50) it was 6.10; on mTOR, below 5.04; at PI 3-kinase alpha it was 6.54; at PI 4-kinase beta, 5.17; on PI 3-kinase gamma, 6.92. Besides, the pIC50 at PI 3-kinase beta was 5.74.
`Cc1ccc(S(=O)(=O)NC[C@@H]2CCC(C)(C)O2)cc1-c1cnc(N)c(-n2cncn2)n1` [Example 127.40]: the pIC50 on Vps34 is below 5.00; on PI 3-kinase delta, 5.85; on mTOR, below 5.00; on PI 3-kinase alpha, 6.11; on PI 4-kinase beta it was 5.12; at PI 3-kinase gamma it was 6.85. In addition, the negative logarithm of the IC50 (pIC50) at PI 3-kinase beta was 5.82.
For `Cc1ccc(S(=O)(=O)NCCC(C)(C)O)cc1-c1cnc(N)c(-c2ccnc(F)c2)n1` [Example 119.10], the pIC50 was below 5.04 at Vps34; 7.00 at PI 3-kinase delta (read-out: Assay F PI3Kδ IC50); 5.19 on mTOR; 6.92 at PI 3-kinase alpha; below 5.04 at PI 4-kinase beta; 7.52 at PI 3-kinase gamma. Moreover, the pIC50 on PI 3-kinase beta was 5.19.
In the case of `Cc1cc(-c2nc(-c3cc(S(=O)(=O)NCC4CCCCO4)ccc3C)cnc2N)ccn1` (stereo not drawn) [Example 129.16, 3-(5-amino-6-(2-methylpyridin-4-yl)pyrazin-2-yl)-4-methyl-N-((tetrahydro-2H-pyran-2-yl)methyl)benzenesulfonamide], the pIC50 at Vps34 is below 5.04; on PI 3-kinase delta (read-out: Assay F PI3Kδ IC50), 5.70; at mTOR it was below 5.04; on PI 3-kinase alpha, 6.20; at PI 4-kinase beta it was below 5.04; at PI 3-kinase gamma, 7.18. In addition, the pIC50 at PI 3-kinase beta is below 5.04.
For `COC(C)(C)CNS(=O)(=O)c1ccc(C)c(-c2cnc(N)c(-c3ccnc(C)c3)n2)c1` [Example 129.15, 3-(5-amino-6-(2-methylpyridin-4-yl)pyrazin-2-yl)-N-(2-methoxy-2-methylpropyl)-4-methylbenzenesulfonamide], the pIC50 is below 5.04 at Vps34; 5.68 on PI 3-kinase delta (read-out: Assay F PI3Kδ IC50); below 5.04 at mTOR; 5.72 on PI 3-kinase alpha; below 5.04 on PI 4-kinase beta; 6.62 on PI 3-kinase gamma. The pIC50 on PI 3-kinase beta is below 5.04.
In the case of `Cc1cc(-c2nc(-c3cc(S(=O)(=O)NCCN4CCCC4)ccc3C)cnc2N)ccn1` [Example 129.27, 3-(5-amino-6-(2-methylpyridin-4-yl)pyrazin-2-yl)-4-methyl-N-(2-(pyrrolidin-1-yl)ethyl)benzenesulfonamide], the pIC50 on Vps34 is below 5.04; on PI 3-kinase delta (read-out: Assay F PI3Kδ IC50) it was 5.68; on mTOR it was below 5.04; on PI 3-kinase alpha, 5.05; on PI 4-kinase beta it was below 5.04; at PI 3-kinase gamma, 6.12. The pIC50 on PI 3-kinase beta was below 5.04.
As for `Cc1ccc(S(=O)(=O)NC(C)C(C)C)cc1-c1cnc(N)c(-n2cncn2)n1` (stereo not drawn) [Example 127.44], the pIC50 is below 5.00 at Vps34; 5.85 at PI 3-kinase delta (read-out: Assay F PI3Kδ IC50); 5.43 on mTOR; 6.14 on PI 3-kinase alpha; 5.21 on PI 4-kinase beta; 6.92 at PI 3-kinase gamma. Moreover, at PI 3-kinase beta, the pIC50 was 5.66.
Consider `Cc1cc(-c2nc(-c3cc(S(=O)(=O)NCCN(C)C)ccc3C)cnc2N)ccn1` [Example 129.26, 3-(5-amino-6-(2-methylpyridin-4-yl)pyrazin-2-yl)-N-(2-(dimethylamino)ethyl)-4-methylbenzenesulfonamide], for which the pIC50 was below 5.04 on Vps34; 5.80 on PI 3-kinase delta (read-out: Assay F PI3Kδ IC50); below 5.04 at mTOR; 5.80 at PI 3-kinase alpha; below 5.04 on PI 4-kinase beta; 6.23 on PI 3-kinase gamma. Besides, at PI 3-kinase beta, the pIC50 was 5.77.
Consider `Cc1ccc(S(=O)(=O)N2CC(F)(F)C(F)(F)C2)cc1-c1cnc(N)c(-n2cncn2)n1` [Example 127.8], for which the pIC50 on Vps34 was below 5.00; at PI 3-kinase delta (read-out: Assay F PI3Kδ IC50) it was below 5.00; at mTOR it was below 5.00; on PI 3-kinase alpha, 5.22; on PI 4-kinase beta, below 5.00; at PI 3-kinase gamma, 6.00. Further, the pIC50 on PI 3-kinase beta is below 5.00.
Take `COCCCNS(=O)(=O)c1ccc(C)c(-c2cnc(N)c(-n3cncn3)n2)c1` [Example 127.10]: the negative logarithm of the IC50 (pIC50) at Vps34 was below 5.00; at PI 3-kinase delta (read-out: Assay F PI3Kδ IC50), 5.26; at mTOR, below 5.00; at PI 3-kinase alpha it was 5.77; at PI 4-kinase beta, below 5.00; at PI 3-kinase gamma, 6.49. For the same compound, the pIC50 on PI 3-kinase beta is 5.04.
For `Cc1ccc(S(=O)(=O)NCC2(O)CCCCC2)cc1-c1cnc(N)c(-n2cncn2)n1` [Example 127.11], the pIC50 is below 5.00 on Vps34; 6.12 at PI 3-kinase delta (read-out: Assay F PI3Kδ IC50); below 5.00 on mTOR; 6.01 at PI 3-kinase alpha; below 5.00 on PI 4-kinase beta; 6.57 on PI 3-kinase gamma. Further, the negative-log IC50 (pIC50) at PI 3-kinase beta is 5.89.
On to `Cc1ccc(S(=O)(=O)N[C@@H]2CCOC2)cc1-c1cnc(N)c(-n2cncn2)n1` [Example 127.20], for which the pIC50 on Vps34 was below 5.00; at PI 3-kinase delta (read-out: Assay F PI3Kδ IC50), 5.77; at mTOR, below 5.00; on PI 3-kinase alpha, 6.01; at PI 4-kinase beta, 5.28; at PI 3-kinase gamma, 6.89. Further, the pIC50 at PI 3-kinase beta was 5.29.
`Cc1cc(-c2nc(-c3cc(S(=O)(=O)NC[C@@](C)(O)C(F)(F)F)ccc3C)cnc2N)ccn1` [Example 129.20, (R)-3-(5-amino-6-(2-methylpyridin-4-yl)pyrazin-2-yl)-4-methyl-N-(3,3,3-trifluoro-2-hydroxy-2-methylpropyl)benzenesulfonamide]: the pIC50 was below 5.04 on Vps34; 6.54 on PI 3-kinase delta (read-out: Assay F PI3Kδ IC50); below 5.04 on mTOR; 6.49 at PI 3-kinase alpha; below 5.04 on PI 4-kinase beta; 6.96 at PI 3-kinase gamma. The pIC50 at PI 3-kinase beta is 5.07.
In the case of `Cc1ccc(S(=O)(=O)NCC2(CO)CC2)cc1-c1cnc(N)c(-n2cncn2)n1` [Example 127.38], the pIC50 on Vps34 was below 5.00; on PI 3-kinase delta (read-out: Assay F PI3Kδ IC50) it was 5.55; on mTOR, below 5.00; at PI 3-kinase alpha, 6.27; at PI 4-kinase beta, 5.17; at PI 3-kinase gamma, 7.00. For the same compound, the pIC50 on PI 3-kinase beta is 5.46.
On to `Cc1ccc(S(=O)(=O)NCCC(C)(C)O)cc1-c1cnc(N)c(-c2cncnc2)n1` [Example 119.20], for which the pIC50 at Vps34 was below 5.04; at PI 3-kinase delta (read-out: Assay F PI3Kδ IC50), 5.68; at mTOR it was 5.32; on PI 3-kinase alpha, 5.83; on PI 4-kinase beta it was below 5.04; on PI 3-kinase gamma it was 6.29. Further, the pIC50 at PI 3-kinase beta was below 5.04.
For the compound `CNCCNS(=O)(=O)c1ccc(C)c(-c2cnc(N)c(-c3ccnc(C)c3)n2)c1` [Example 129.33, 3-(5-amino-6-(2-methylpyridin-4-yl)pyrazin-2-yl)-4-methyl-N-(2-(methylamino)ethyl)benzenesulfonamide], the pIC50 on Vps34 is below 5.04; on PI 3-kinase delta (read-out: Assay F PI3Kδ IC50) it was 5.70; at mTOR, below 5.04; on PI 3-kinase alpha, 5.64; at PI 4-kinase beta, below 5.04; on PI 3-kinase gamma it was 6.59. Further, the negative-log IC50 (pIC50) at PI 3-kinase beta is below 5.04.
As to `Cc1ccc(S(=O)(=O)NCC(C)(C)O)cc1-c1cnc(N)c(-c2cn(C)nc2C)n1` [Example 13], the pIC50 on Vps34 is below 5.00; at mTOR it was below 5.00; on PI 4-kinase beta, 5.19; at PI 3-kinase beta, 5.96.
On to `Cc1cc(-c2nc(-c3cc(S(=O)(=O)NCC(C)(C)O)ccc3C)cnc2N)on1` [Example 88, 3-(5-Amino-6-(3-methylisoxazol-5-yl)pyrazin-2-yl)-N-(2-hydroxy-2-methylpropyl)-4-methylbenzenesulfonamide], for which the negative-log IC50 (pIC50) is 5.96 at PI 3-kinase delta (read-out: Assay F PI3Kδ IC50), 5.21 at PI 4-kinase beta and 5.66 at PI 3-kinase beta.
For `Cc1ncc(-c2nc(-c3cc(S(=O)(=O)NCCO)ccc3C)cnc2N)s1` [Example 45, 3-(5-Amino-6-(2-methylthiazol-5-yl)pyrazin-2-yl)-N-(2-hydroxyethyl)-4-methylbenzenesulfonamide], the pIC50 is 5.96 on Vps34, 6.64 on PI 3-kinase delta (read-out: Assay F PI3Kδ IC50), 5.80 at PI 4-kinase beta and 6.28 on PI 3-kinase beta.
For `Cc1ncc(-c2nc(-c3cc(S(=O)(=O)NCC4COCCN4C)ccc3C)cnc2N)s1` (stereo not drawn) [Example 45.12, 3-(5-Amino-6-(2-methylthiazol-5-yl)pyrazin-2-yl)-4-methyl-N-((4-methylmorpholin-3-yl)methyl)benzenesulfonamide], the pIC50 is 5.59 at Vps34; 7.00 on PI 3-kinase delta (read-out: Assay F PI3Kδ IC50); 7.30 at PI 3-kinase alpha; 5.85 at PI 4-kinase beta; 7.82 at PI 3-kinase gamma; 6.41 at PI 3-kinase beta.
`Cc1ccc(S(=O)(=O)NCC(C)(C)CO)cc1-c1cnc(N)c(-c2nc(C3CC3)no2)n1` [Example 93, 3-(5-Amino-6-(3-cyclopropyl-1,2,4-oxadiazol-5-yl)pyrazin-2-yl)-N-(3-hydroxy-2,2-dimethylpropyl)-4-methylbenzenesulfonamide]: the negative-log IC50 (pIC50) on Vps34, on mTOR and at PI 4-kinase beta was below 5.04 each time.
